This is an account of results in patent US9890185B2, “Urea derivatives useful as kinase inhibitors” (Respivert Limited, priority 2013, dated 2018).

Structures are written as SMILES.

Assay [1] relates to PBMCs. The assay is described as follows: IL-2 release in CD3/CD28 stimulated PBMC cells (assay c). Format: cell-based. The following applies: Homo sapiens, read-out: IC50 Values for Inhibition of Cytokine Release, PBMCs IL-2. In outline:
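Compound added to human PBMCs on anti-CD3/anti-CD28-coated wells (0.3 and 3 μg/mL respectively); 3-day culture. Sandwich ELISA of supernatant IL-2 or IFN gamma gives the read-out, with IC50 derived from the dose-response curve.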

The next assay addresses Syk (Homo sapiens (Human), UniProt P43405). The assay is described as follows: Syk enzyme inhibition (FRET, Z-LYTE). Format: biochemical. In outline:
(§1)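 First, compound and enzyme incubate 2 hr at room temperature. Next, FRET peptide (8 μM added solution) and ATP go in for 1 hr, using an 800 μM solution for c-Src and 60 μM for Syk. Finally protease develops for 1 hr; IC50 is fitted to inhibition versus concentration.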

In the next assay the target is GSK 3α (Homo sapiens (Human), UniProt P49840). The assay is described as follows: GSK 3α enzyme inhibition (FRET, Z-LYTE, Method 2). Format: biochemical. Conditions: read-out: IC50 Values for Enzyme Inhibition, GSK3α. In outline:
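Phosphorylation of a dual-labelled synthetic peptide by human GSK3α is read as a coumarin/fluorescein ratio after protease development. Compound stocks run 4 to 0.004 μg/mL, and ATP stock is 40 μM.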

For another assay, the system named is d-U937 cells. The experiment in a line: Accumulation of β catenin in d-U937 cells (assay m). The following applies: percentage relative to Reference Compound at 1 μg/mL. Format: cell-based, human. In outline:
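Read-out: colourimetric cell-based immunoassay for endogenous β-catenin (OD450 minus 655 reference), normalised to crystal violet absorbance at 595 nm. Test compound or vehicle was applied for 18 hr to U937 monocytes first differentiated with PMA (100 ng/mL) for 48–72 hr.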

The target in a further assay is c-Src (Homo sapiens (Human), UniProt P12931). The experiment in a line: c-Src enzyme inhibition (FRET, Z-LYTE). Format: biochemical. In outline: as §1
Assay [2] concerns PBMCs. The assay is described as follows: Cell mitosis assay in PBMCs (assay g). Conditions: Homo sapiens, PBMC, test compound 5 μg/mL. Format: cell-based. In outline:
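Metaphase arrest with 0.1 μg/mL demecolcine during the final 2 hr of a 20 hr compound exposure, which follows 48 hr of 2% PHA stimulation of healthy-donor human PBMCs. Mitotic lymphocytes counted by flow cytometry (anti-phospho-histone 3 plus propidium iodide). Inhibition expressed relative to 0.5% DMSO.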

Chain of GSK 3α (P49840 whole entry): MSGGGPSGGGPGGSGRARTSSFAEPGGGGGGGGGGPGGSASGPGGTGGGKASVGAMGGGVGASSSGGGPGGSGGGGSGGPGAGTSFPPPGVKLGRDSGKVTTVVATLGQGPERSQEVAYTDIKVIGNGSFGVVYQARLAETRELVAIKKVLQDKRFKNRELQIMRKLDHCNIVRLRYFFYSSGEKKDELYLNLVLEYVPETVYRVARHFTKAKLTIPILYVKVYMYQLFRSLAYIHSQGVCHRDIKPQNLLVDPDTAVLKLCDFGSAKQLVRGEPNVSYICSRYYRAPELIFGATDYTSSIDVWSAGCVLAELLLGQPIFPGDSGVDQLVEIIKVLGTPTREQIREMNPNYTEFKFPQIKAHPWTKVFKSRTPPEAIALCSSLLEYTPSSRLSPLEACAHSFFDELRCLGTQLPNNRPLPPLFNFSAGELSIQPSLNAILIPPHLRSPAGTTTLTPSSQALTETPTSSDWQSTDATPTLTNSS
Chain of c-Src (P12931 whole entry, looked up): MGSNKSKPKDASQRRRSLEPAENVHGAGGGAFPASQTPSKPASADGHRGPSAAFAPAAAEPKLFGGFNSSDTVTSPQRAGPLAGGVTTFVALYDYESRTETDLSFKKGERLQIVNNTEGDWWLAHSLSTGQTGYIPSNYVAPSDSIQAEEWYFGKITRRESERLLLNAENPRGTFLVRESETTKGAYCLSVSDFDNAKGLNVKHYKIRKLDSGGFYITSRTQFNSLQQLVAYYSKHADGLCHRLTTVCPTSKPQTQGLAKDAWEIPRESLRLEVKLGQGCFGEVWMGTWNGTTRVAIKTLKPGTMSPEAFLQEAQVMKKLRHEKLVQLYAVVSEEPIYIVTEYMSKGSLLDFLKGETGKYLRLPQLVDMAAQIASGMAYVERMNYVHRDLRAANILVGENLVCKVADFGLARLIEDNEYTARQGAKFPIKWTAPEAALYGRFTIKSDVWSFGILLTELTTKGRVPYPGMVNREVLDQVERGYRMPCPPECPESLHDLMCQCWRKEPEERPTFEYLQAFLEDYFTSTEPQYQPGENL

A word on the IC50: it is the concentration needed to halve the response being measured. A word on the inhibition: it is the drop in the measured response relative to a control, in per cent. The low end stands for a weak effect, the high end for a strong effect. For the compound `COc1cc(Nc2cc(Oc3ccc(NC(=O)Nc4cc(C(C)(C)C)cc(P(C)(C)=O)c4OC)c4ccccc34)ccn2)cc(C(N)=O)c1` [Example 37, 3-((4-((4-(3-(5-(tert-butyl)-3-(dimethylphosphoryl)-2-methoxyphenyl)ureido)-naphthalen-1-yl)oxy)pyridin-2-yl)amino)-5-methoxybenzamide], the IC50 is 48 nM in the assay on PBMCs [1], 347 nM at Syk, 2160 nM on GSK 3α and 32 nM against c-Src. The “% β-catenin induction” value is given as 2.0% with d-U937 cells (test compound 1 μg/mL), 15.5% in the assay with d-U937 cells (test compound 5 μg/mL) and 25.5% in the assay with d-U937 cells (test compound 10 μg/mL). The inhibition at 5 µg/mL in the assay with PBMCs [2] stood at 43.2%.
Take `COc1c(CNC(C)=O)cc(C(C)(C)C)cc1NC(=O)Nc1ccc(Oc2ccnc(Nc3ccccc3)c2)c2ccccc12` [Example 35, N-(5-(tert-Butyl)-2-methoxy-3-(3-(4-((2-(phenylamino)pyridin-4-yl)oxy)naphthalen-1-yl)ureido)benzyl)acetamide]: the IC50 with PBMCs [1] is 221 nM; against Syk, 369 nM; at GSK 3α it was greater than 11800 nM; against c-Src, 112 nM. Besides, the “% β-catenin induction” value in the assay with d-U937 cells (test compound 1 μg/mL) turned out to be 5.5%; with d-U937 cells (test compound 5 μg/mL) it was 16.5%; in the assay on d-U937 cells (test compound 10 μg/mL) it was 23.5%. The compound further registered an inhibition at 5 µg/mL in the assay on PBMCs [2] of 50.6%.
In the case of `COc1c(NC(=O)Nc2ccc(Oc3ccnc(Nc4ccccc4)c3)c3ccccc23)cc(C(C)(C)C)cc1P(C)(C)=O` [Example 11, 1-(5-(tert-Butyl)-3-(dimethylphosphoryl)-2-methoxyphenyl)-3-(4-((2-(phenylamino)pyridin-4-yl)oxy)naphthalen-1-yl)urea], the 50% inhibitory concentration (IC50) in the assay with PBMCs [1] was found to be 80.6 nM; at Syk it was 186 nM; at GSK 3α it was 3830 nM; at c-Src it was 32 nM. The “% β-catenin induction” value with d-U937 cells (test compound 1 μg/mL) was 5.0%; in the assay with d-U937 cells (test compound 5 μg/mL), 19.7%; in the assay on d-U937 cells (test compound 10 μg/mL) it was 27.3%. Further, the inhibition at 5 µg/mL with PBMCs [2] came out at 61%.
For `COc1cc(Nc2cc(Oc3ccc(NC(=O)Nc4cc(C(C)(C)C)cc(CC(N)=O)c4OC)c4ccccc34)ccn2)ccn1` [38(k), 2-(5-(tert-Butyl)-2-methoxy-3-(3-(4-((2-((2-methoxypyridin-4-yl)amino)pyridin-4-yl)oxy)naphthalen-1-yl)ureido)phenyl)acetamide], the IC50 was 281 nM with PBMCs [1], greater than 1610 nM at Syk, 2620 nM at GSK 3α and 166 nM against c-Src. In addition, the “% β-catenin induction” value in the assay on d-U937 cells (test compound 1 μg/mL) is given as 10.5%; in the assay with d-U937 cells (test compound 5 μg/mL), 39.5%; with d-U937 cells (test compound 10 μg/mL), 52.0%. Also, testing at 5 µg/mL in the assay with PBMCs [2] gave an inhibition of 70.5%.
Consider `COc1c(CC(N)=O)cc(C(C)(C)C)cc1NC(=O)Nc1ccc(Oc2ccnc(Nc3ccccc3)c2)c2ccccc12` [Example 13, 2-(5-(tert-Butyl)-2-methoxy-3-(3-(4-((2-(phenylamino)pyridin-4-yl)oxy)naphthalen-1-yl)ureido)phenyl)acetamide], for which the IC50 in the assay on PBMCs [1] came to 204 nM; against Syk, 1390 nM; at GSK 3α, 7580 nM; against c-Src it was 239 nM. For the same compound, the figures for the “% β-catenin induction” value in the assay with d-U937 cells (test compound 1 μg/mL), in the assay on d-U937 cells (test compound 5 μg/mL) and in the assay with d-U937 cells (test compound 10 μg/mL) were −4.0%, 6.5% and 9.5%, respectively. For the same compound, in the assay on PBMCs [2], the inhibition at 5 µg/mL worked out at 13.9%.
Take `COc1cc(F)cc(Nc2cc(Oc3ccc(NC(=O)Nc4cc(C(C)(C)C)cc(P(C)(C)=O)c4OC)c4ccccc34)ccn2)c1` [15(an), 1-(5-(tert-butyl)-3-(dimethylphosphoryl)-2-methoxyphenyl)-3-(4-((2-((3-fluoro-5-methoxyphenyl)amino)pyridin-4-yl)oxy)naphthalen-1-yl)urea]: the IC50 in the assay with PBMCs [1] was 251 nM; on Syk, 712 nM; at GSK 3α, greater than 15200 nM; against c-Src it was 116 nM. Further, the “% β-catenin induction” value in the assay on d-U937 cells (test compound 1 μg/mL) is given as 1.5%; with d-U937 cells (test compound 5 μg/mL) it was 11.5%; with d-U937 cells (test compound 10 μg/mL), 13.5%. This compound had an inhibition at 5 µg/mL in the assay on PBMCs [2] of 50.3%.
Take `COc1cc(Nc2cc(Oc3ccc(NC(=O)Nc4cc(C(C)(C)C)cc([S+](C)[O-])c4OC)c4ccccc34)ccn2)cc(OC)c1` (stereo not drawn) [Example 40, 1-(5-(tert-Butyl)-2-methoxy-3-(methylsulfinyl)phenyl)-3-(4-((2-((3,5-dimethoxyphenyl)amino)pyridin-4-yl)oxy)naphthalen-1-yl)urea]: the half-inhibitory concentration (IC50) was 179 nM in the assay on PBMCs [1], 201 nM against Syk, greater than 15300 nM at GSK 3α and 78 nM against c-Src. Further, the “% β-catenin induction” value in the assay on d-U937 cells (test compound 1 μg/mL) is on record as −2.0%; in the assay with d-U937 cells (test compound 5 μg/mL), −2.0%; with d-U937 cells (test compound 10 μg/mL) it was −0.5%. Also, at 5 µg/mL the inhibition with PBMCs [2] was 44.3%.
For the compound `C#Cc1cc(Nc2cc(Oc3ccc(NC(=O)Nc4cc(C(C)(C)C)cc(P(C)(C)=O)c4OC)c4ccccc34)ccn2)cc(C(=O)NCCOCCOCCOC)c1` [Example 3, 3-((4-((4-(3-(5-(tert-Butyl)-3-(dimethylphosphoryl)-2-methoxyphenyl)ureido)naphthalen-1-yl)oxy)pyridin-2-yl)amino)-5-ethynyl-N-(2-(2-(2-methoxyethoxy)ethoxy)ethyl)benzamide], the IC50 with PBMCs [1] was 181 nM; against Syk, greater than 1220 nM; on GSK 3α it was 4900 nM; against c-Src, 38 nM. For the same compound, the “% β-catenin induction” value is recorded as 5.7% in the assay with d-U937 cells (test compound 1 μg/mL), 9.7% with d-U937 cells (test compound 5 μg/mL) and 7.3% in the assay with d-U937 cells (test compound 10 μg/mL). The compound further displayed an inhibition at 5 µg/mL with PBMCs [2] of 29.4%.
Turning to `COc1cccc(Nc2cc(Oc3ccc(NC(=O)Nc4cc(C(C)(C)C)cc(CNC(C)=O)c4OC)c4ccccc34)ccn2)c1` [Example 43, N-(5-(tert-Butyl)-2-methoxy-3-(3-(4-((2-((3-methoxyphenyl)amino)pyridin-4-yl)oxy)naphthalen-1-yl)ureido)benzyl)acetamide], the IC50 with PBMCs [1] was 30.4 nM; on Syk it was 132 nM; at GSK 3α, 7700 nM; against c-Src it was 54 nM. Moreover, the “% β-catenin induction” value in the assay with d-U937 cells (test compound 1 μg/mL) turned out to be 7.5%; with d-U937 cells (test compound 5 μg/mL) it was 19.5%; in the assay on d-U937 cells (test compound 10 μg/mL), 20.5%. Moreover, in the assay on PBMCs [2], the inhibition at 5 µg/mL worked out at 62.1%.
For `COc1c(CNC(C)=O)cc(C(C)(C)C)cc1NC(=O)Nc1ccc(Oc2ccnc(NCc3ccccn3)c2)c2ccccc12` [38(q), N-(5-(tert-Butyl)-2-methoxy-3-(3-(4-((2-((pyridin-2-ylmethyl)amino)pyridin-4-yl)oxy)naphthalen-1-yl)ureido)benzyl)acetamide], the IC50 in the assay on PBMCs [1] is 443 nM; against Syk, greater than 1620 nM; at GSK 3α, 1500 nM; at c-Src, 383 nM. Besides, the results for the “% β-catenin induction” value in the assay on d-U937 cells (test compound 1 μg/mL), with d-U937 cells (test compound 5 μg/mL) and in the assay on d-U937 cells (test compound 10 μg/mL) were 11.5%, 41.5% and 57.5%, respectively. This compound also registered an inhibition at 5 µg/mL in the assay on PBMCs [2] of 82.1%.
In the case of `COc1cc(Nc2nccc(Oc3ccc(NC(=O)Nc4cc(C(C)(C)C)cc(OCP(C)(C)=O)c4OC)c4ccccc34)n2)cc(OC)c1` [Example 20, 1-(5-(tert-Butyl)-3-((dimethylphosphoryl)methoxy)-2-methoxyphenyl)-3-(4-((2-((3,5-dimethoxyphenyl)amino)pyrimidin-4-yl)oxy)naphthalen-1-yl)urea], the IC50 turned out to be 10.5 nM in the assay with PBMCs [1], 188 nM on Syk, 2060 nM at GSK 3α and 33 nM at c-Src. Besides, the “% β-catenin induction” value in the assay on d-U937 cells (test compound 1 μg/mL) was found to be 2.5%; in the assay with d-U937 cells (test compound 5 μg/mL), 20.5%; with d-U937 cells (test compound 10 μg/mL) it was 16.5%. In the assay with PBMCs [2], this compound showed an inhibition at 5 µg/mL of 55%.
For `COc1c(NC(=O)Nc2ccc(Oc3ccnc(Nc4cc(C)cc(C)c4)c3)c3ccccc23)cc(C(C)(C)C)cc1P(C)(C)=O` [Example 28, 1-(5-(tert-Butyl)-3-(dimethylphosphoryl)-2-methoxyphenyl)-3-(4-((2-((3,5-dimethylphenyl)-amino)pyridin-4-yl)oxy)naphthalen-1-yl)urea], the IC50 with PBMCs [1] is 63.3 nM; at Syk it was 157 nM; at GSK 3α, 8260 nM; against c-Src, 48 nM. The “% β-catenin induction” value amounted to 3.0% in the assay on d-U937 cells (test compound 1 μg/mL), 6.7% with d-U937 cells (test compound 5 μg/mL) and 11.3% in the assay with d-U937 cells (test compound 10 μg/mL). Besides, the inhibition at 5 µg/mL in the assay on PBMCs [2] stood at 54.4%.
